From PubChem BioAssay AID493172 (Broad Institute, 2011)
Activity calls are given as the source filed them.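 How the source made its calls: active means falling signal with an AC50 no greater than ten times the top valid dose tested for that sample; inconclusive means flat curve with inhibition of 30 to 70 percent, or poor fit; inactive means activity in the rising direction, and the rest.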

Target: LuxS (S-ribosylhomocysteine lyase), bacterial
Assay: LuxS enzyme inhibitors, dose response, biochemical, dry powder, set 2, absorbance (AID 493172)
Conditions: purified Co-LuxS, DTNB homocysteine absorbance 412 nm; for activity change, negative = inhibition: at 35 µM (top of the series)

Row | SMILES | activity change, negative = inhibition | AC50
1 | COc1cc(NC(=O)CN2C(=O)NC(c3ccccc3)(c3ccccc3)C2=O)cc(OC)c1 | inactive | 
2 | CCc1ccc(S(=O)(=O)Nc2ccc(Br)cn2)cc1 | inactive | 
3 | Cn1cnc(S(=O)(=O)Nc2ccc(OC(F)(F)F)cc2)c1 | inactive | 
4 | C=Cn1c(C(=O)O)ccc1-c1ccc(CC)cc1 |  | > 35 µM (inactive)

Other lines, results leading:

Row | activity change, negative = inhibition | AC50 | SMILES
5 | inactive |  | CCc1ccc(C(=O)Nc2ccc(Br)cn2)cc1
6 | inactive |  | Cc1cccc(NS(=O)(=O)c2ccc(Oc3ccccc3)cc2)n1
7 | inactive |  | Cc1cccc(NC(=O)c2ccc(Oc3ccccc3)cc2)n1
